{"source": "paper PMC7433010", "about": "“Exploration of multi‐target effects of 3‐benzoyl‐5‐hydroxychromen‐2‐one in Alzheimer’s disease cell and mouse models” (Aging Cell, 2020)", "key": {"[1]": {"biological_target": "T1, His‐tagged ∆K280 TauRD protein (Homo sapiens, UniProt P10636, DEL597-597)", "T1 construct": "containing residues 244–372 of the full‐length 4R2N Tau441; added start Met (ATG codon in forward primer) (N); made in house; host or cells: E. coli BL21(DE3)pLysS", "T1 sequence (P10636 with tags, fused parts or gaps isoform P10636-8 DEL280-280)": "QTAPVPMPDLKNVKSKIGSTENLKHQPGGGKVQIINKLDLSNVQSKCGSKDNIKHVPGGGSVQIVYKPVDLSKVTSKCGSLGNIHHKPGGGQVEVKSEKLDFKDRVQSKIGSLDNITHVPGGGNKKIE", "experiment": "TEM examination of ΔK280 TauRD aggregates", "format": "biochemical", "details": "10 µM", "text": "For TauRD aggregation examination, the samples of formed fibrils without or with compound addition were placed on a 200-Mesh copper (holey-carbon) grid and viewed on a JEM-1230 transmission electron microscope (JEOL, Tokyo, Japan) at an accelerating voltage of 100 kV.\nFigure S3. TauRD-His proteins and Tau aggregation monitored by thioflavin T fluorescence and TEM. (a) SDS-PAGE gel (left) and Western blot (right) of wild type (WT) and ΔK280 TauRD proteins from IPTG-induced bacterial cells. Wild type clone #3 and ΔK280 clone #2 (marked in red) were selected to prepare purified proteins for thioflavin T and TEM studies. (b) Thioflavin T binding assay for TauRD aggregation. TauRD protein (20 μM in 50 μl buffer) was incubated with congo red, licochalcone A, or LM compounds (1−10 μM) at 37°C for 48 h, and aggregation was monitored by measuring thioflavin T fluorescence intensity (n = 3). p values: comparisons between 0 h and 48 h (^###: p < 0.001), wild type versus ΔK280 (^&&&: p < 0.001), or with and without compound addition (**: p < 0.01, ***: p < 0.001). (one-way ANOVA with a post hoc Tukey test) (c) TEM examination of ΔK280 TauRD aggregation without or with congo red and LM-004 (10 μM) addition."}, "ΔK280 TauRD‐DsRed": {"biological_target": "T2, ΔK280 TauRD‐DsRed (Homo sapiens, UniProt P10636, DEL597-597)", "T2 construct": "containing residues 244–372 of the full‐length 4R2N Tau441; expressed in transfected cells; host or cells: Tet-On 293 cells, doxycycline-induced (pcDNA5/FRT/TO/TauRD-DsRed)", "T2 sequence (P10636 with tags, fused parts or gaps isoform P10636-8 DEL280-280)": "as above", "experiment": "∆K280 TauRD‐DsRed fluorescence assay (Tau misfolding) in 293 cells", "format": "cell-based", "details": "3 days", "text": "In ∆K280 TauRD‐DsRed 293 cells, a proaggregant (ΔK280) Tau repeat domain (TauRD) containing residues 244–372 of the full‐length 4R2N Tau441 was fused in‐frame with DsRed fluorophore. Compared to the wild‐type TauRD, the poorly folded ΔK280 TauRD formed aggregates, which adversely affected the folding of fused DsRed and thus decreased DsRed fluorescence, as also evidenced by increase in thioflavin S fluorescence emission (Chang et al., 2017). Thioflavin S is a reporter dye for studies of Tau toxicity and pharmacologic prevention in cell model of tauopathy (Pickhardt et al., 2017). It binds to amyloid fibrils but not monomers and gives a distinct increase in fluorescence emission. Inhibition of Tau aggregation may improve DsRed misfolding, leading to increased fluorescence in ΔK280 TauRD‐DsRed‐expressing cells. […] In the following experiments, DsRed fluorescence was measured in wells containing at least 80% viable cells. […]\nDsRed fluorescence of proaggregant ∆K280 TauRD-DsRed 293 cells was evaluated to reflect Tau aggregation. […] Thioflavin S images (FITC 543 nm excitation and 593 nm emission) were captured and analyzed as described. In general, 2 × 10^4 cells in each biological replicate were analyzed.\nFigure S2. ΔK280 TauRD-DsRed 293 cells. […] DsRed/thioﬂavin S fluorescence, ROS, and caspase 3 activity were assessed on day 5. […] (c) Dose response curves of LM-031 based on DsRed fluorescence measurement. […]"}}, "data": [{"smiles": "Nc1c(/N=N/c2ccc(-c3ccc(/N=N/c4cc(S(=O)(=O)O)c5ccccc5c4N)cc3)cc2)cc(S(=O)(=O)O)c2ccccc12", "note": "[congo red, reference compound]", "values": [{"measurement": "Tau aggregates by TEM", "setting": "[1]", "result": "reduced Tau aggregates"}, {"measurement": "∆K280 TauRD‐DsRed fluorescence", "setting": "ΔK280 TauRD‐DsRed; 10 µM, no treatment = 100%", "result": 108, "unit": "%"}]}, {"smiles": "C=CC(C)(C)c1cc(/C=C/C(=O)c2ccc(O)cc2)c(OC)cc1O", "note": "[licochalcone A, reference compound]", "values": [{"measurement": "∆K280 TauRD‐DsRed fluorescence", "setting": "ΔK280 TauRD‐DsRed; 1 µM, untreated cells = 100%", "result": 105, "unit": "%"}]}, {"smiles": "COc1ccc(C(=O)/C=C/c2cc(Br)ccc2O)cc1", "note": "[LM‐004]", "values": [{"measurement": "Tau aggregates by TEM", "setting": "[1]", "result": "reduced Tau aggregates"}]}]}
